Measurements: BindingDB's records for doi:10.7270/Q280511V (University of Pittsburgh, 2008)

Target: Serine/threonine-protein kinase PLK1 (Homo sapiens, UniProt P53350)
Assay: PLK1 polo-box domain peptide-binding inhibitors, SAR follow-up, biochemical, fluorescence polarization, synthesized analogs, concentration response (AID 1057)

Serine/threonine-protein kinase PLK1, sequence (P53350 whole entry, the tested form may be a part): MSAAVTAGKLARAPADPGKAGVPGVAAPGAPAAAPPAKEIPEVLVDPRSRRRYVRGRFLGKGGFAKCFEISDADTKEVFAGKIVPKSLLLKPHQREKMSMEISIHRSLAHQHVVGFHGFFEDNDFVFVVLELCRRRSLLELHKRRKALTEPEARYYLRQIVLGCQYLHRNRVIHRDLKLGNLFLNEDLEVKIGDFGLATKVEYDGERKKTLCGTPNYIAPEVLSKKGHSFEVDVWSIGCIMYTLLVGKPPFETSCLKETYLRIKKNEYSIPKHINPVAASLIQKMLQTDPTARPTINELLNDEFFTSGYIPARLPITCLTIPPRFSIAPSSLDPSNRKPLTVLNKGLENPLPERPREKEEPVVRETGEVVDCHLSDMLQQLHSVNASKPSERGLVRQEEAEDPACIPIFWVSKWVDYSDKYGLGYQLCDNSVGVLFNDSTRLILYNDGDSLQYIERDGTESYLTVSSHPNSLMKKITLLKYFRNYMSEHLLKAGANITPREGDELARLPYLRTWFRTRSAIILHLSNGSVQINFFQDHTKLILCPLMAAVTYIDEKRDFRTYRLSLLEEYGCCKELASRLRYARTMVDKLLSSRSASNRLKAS

Compound CCOC(=O)c1ccc(NC(=O)c2c(O)[nH]c(=O)[nH]c2=O)cc1 has an IC50 greater than 50 µM.
In the case of CCOC(=O)c1ccccc1NC(=O)c1c(O)[nH]c(=O)[nH]c1=O, the IC50 is reported as greater than 50 µM.
CCOC(=O)c1ccccc1NC(=O)c1c(O)[nH]c(=S)[nH]c1=O gave an IC50 greater than 50 µM.
With O=C(Nc1ccccc1)c1c(O)[nH]c(=O)[nH]c1=O the IC50 was greater than 50 µM.
Work on O=C(Nc1ccccc1)c1c(O)[nH]c(=S)[nH]c1=O yielded an IC50 greater than 50 µM.
Compound CCOc1ccc(NC(=O)c2c(N)n(C)c(=O)[nH]c2=O)cc1 has an IC50 greater than 50 µM.
In the case of CC(NNC(=O)c1ccncc1)=C1C(=O)NC(=O)NC1=O, the IC50 is reported as greater than 50 µM.
Cc1ccc(NC(=O)c2ccc(F)cc2F)cc1 [2,4-bis(fluoranyl)-N-(4-methylphenyl)benzamide] gave an IC50 greater than 50 µM.
O=C(Nc1ccccc1)c1ccc(F)cc1F [2,4-bis(fluoranyl)-N-phenyl-benzamide] was tested, and the IC50 was greater than 50 µM.
Work on CCOc1ccc(NC(=O)c2ccc(F)cc2F)cc1 [2,4-difluoro-N-p-phenetyl-benzamide] yielded an IC50 greater than 50 µM.
CCOC(=O)c1ccccc1NC(=O)c1ccc(F)cc1F [2-[(2,4-difluorobenzoyl)amino]benzoic acid ethyl ester] was tested, and the IC50 was greater than 50 µM.
For CCOC(=O)c1cccc(NC(=O)c2ccc(F)cc2F)c1 [3-[(2,4-difluorobenzoyl)amino]benzoic acid ethyl ester], the IC50 was greater than 50 µM.
CCOC(=O)c1cccc(NC(=O)c2c(O)[nH]c(=O)[nH]c2=O)c1 [3-[[(6-hydroxy-2,4-dioxo-1H-pyrimidin-5-yl)-oxomethyl]amino]benzoic acid ethyl ester] was tested, and the IC50 was greater than 50 µM.
CCCCOC(=O)c1ccc(NC(=O)c2ccc(F)cc2F)cc1 [4-[(2,4-difluorobenzoyl)amino]benzoic acid butyl ester] was tested, and the IC50 was greater than 50 µM.
CCOC(=O)c1ccc(NC(=O)c2ccc(F)cc2F)cc1 [4-[(2,4-difluorobenzoyl)amino]benzoic acid ethyl ester] gave an IC50 greater than 50 µM.
CCOC(=O)c1ccc(NS(=O)(=O)c2c(N)n(C)c(=O)n(C)c2=O)cc1 [4-[(4-amino-1,3-dimethyl-2,6-dioxo-5-pyrimidinyl)sulfonylamino]benzoic acid ethyl ester] was tested, and the IC50 was greater than 50 µM.
For CCOC(=O)c1ccc(NC(=O)c2c(N)n(C)c(=O)n(C)c2=O)cc1 [4-[(4-amino-2,6-diketo-1,3-dimethyl-pyrimidine-5-carbonyl)amino]benzoic acid ethyl ester], the IC50 was greater than 50 µM.
CCCCOC(=O)c1ccc(NC(=O)c2c(N)n(C)c(=O)[nH]c2=O)cc1 [4-[[(6-amino-1-methyl-2,4-dioxo-5-pyrimidinyl)-oxomethyl]amino]benzoic acid butyl ester] gave an IC50 greater than 50 µM.
For CCCCOC(=O)c1ccc(NC(=O)c2c(O)[nH]c(=O)[nH]c2=O)cc1 [4-[[(6-hydroxy-2,4-dioxo-1H-pyrimidin-5-yl)-oxomethyl]amino]benzoic acid butyl ester], the IC50 was greater than 50 µM.
In the case of Cn1c(N)c(S(=O)(=O)NCc2ccccc2)c(=O)n(C)c1=O [4-amino-1,3-dimethyl-2,6-dioxo-N-(phenylmethyl)-5-pyrimidinesulfonamide], the IC50 is reported as greater than 50 µM.
In the case of Cc1cccc(NNC=C2C(=O)NC(=S)NC2=O)c1 [5-[[2-(3-methylphenyl)hydrazinyl]methylidene]-2-sulfanylidene-1,3-diazinane-4,6-dione], the IC50 is reported as greater than 50 µM.
In the case of CCOC(=O)CCCCCNC(=O)c1ccc(F)cc1F [6-[(2,4-difluorobenzoyl)amino]hexanoic acid ethyl ester], the IC50 is reported as greater than 50 µM.
CCOC(=O)CCCCCNC(=O)C1C(=O)NC(=O)NC1=O [6-[[hydroxy-(2,4,6-triketohexahydropyrimidin-5-ylidene)methyl]amino]hexanoic acid ethyl ester] was tested, and the IC50 was greater than 50 µM.
CCOc1ccc(NC(=O)c2c(O)[nH]c(=O)[nH]c2=O)cc1 [N-(4-ethoxyphenyl)-6-hydroxy-2,4-dioxo-1H-pyrimidine-5-carboxamide] was tested, and the IC50 was greater than 50 µM.
With CCOC(=O)c1ccc(NC(=O)c2c(N)n(C)c(=O)[nH]c2=O)cc1 [UPDDI-00294856] the IC50 was greater than 50 µM.
With Cn1c(N)c(C(=O)Nc2ccccc2)c(=O)[nH]c1=O [UPDDI-00398616] the IC50 was greater than 50 µM.
CCOC(=O)c1cccc(NC(=O)c2c(N)n(C)c(=O)[nH]c2=O)c1 [UPDDI-00398617] was tested, and the IC50 was greater than 50 µM.
For CCOC(=O)c1ccc(NC(=O)c2c(NCc3ccccc3)[nH]c(=O)[nH]c2=O)cc1 [UPDDI-00398618], the IC50 was greater than 50 µM.
Compound CCOC(=O)c1ccccc1NC(=O)c1c(N)n(C)c(=O)[nH]c1=O [ethyl 2-[[6-azanyl-1-methyl-2,4-bis(oxidanylidene)pyrimidin-5-yl]carbonylamino]benzoate] has an IC50 greater than 50 µM.
With CCOC(=O)c1cccc(NC(=O)c2c(NCc3ccccc3)[nH]c(=O)[nH]c2=O)c1 [ethyl 3-[[2,4-bis(oxidanylidene)-6-[(phenylmethyl)amino]-1H-pyrimidin-5-yl]carbonylamino]benzoate] the IC50 was greater than 50 µM.
CCOC(=O)c1ccc(NC(=O)c2c(N)n(Cc3ccccc3)c(=O)[nH]c2=O)cc1 [ethyl 4-[(6-amino-1-benzyl-2,4-dioxopyrimidine-5-carbonyl)amino]benzoate] showed an IC50 greater than 50 µM.
